Read-outs that look alike come from different tables or passages of the source.
What was measured:
[1] = 10 μM
Description: 50 μL aliquots of positive controls and test compounds spiked into rat or human plasma (n=2) were added to a pre-warmed plate (37° C.) and shaken at 50 rpm. At each respective time point, the reaction was stopped by adding 500 μL of acetonitrile containing internal standards (100 nM aprozolam, 200 nM caffeine, 100 nM tolbutamide). All samples were vortexed for 10 minutes, followed by centrifugation at 3,220 g for 30 minutes to precipitate proteins. 100 μL of the supernatant is transferred to a new plate. The supernatant will be diluted with ultrapure water according to the LC-MS signal response and peak shape.

[2] = 10 μM; remark: listed apart in the source

| SMILES | Prodrug (%) remaining, Rat Plasma ([1]; 0 h) [%] | Prodrug (%) remaining, Rat Plasma ([1]; 10 min) [%] | Prodrug (%) remaining, Rat Plasma ([1]; 0.5 h) [%] | Prodrug (%) remaining, Rat Plasma ([1]; 1 h) [%] | Prodrug (%) remaining, Rat Plasma ([1]; 2 h) [%] | Prodrug (%) remaining, Rat Plasma ([1]; 4 h) [%] | Prodrug (%) remaining, Human Plasma ([2]; 0 h) [%] | Prodrug (%) remaining, Human Plasma ([2]; 10 min) [%] | Prodrug (%) remaining, Human Plasma ([2]; 0.5 h) [%] | Prodrug (%) remaining, Human Plasma ([2]; 1 h) [%] | Prodrug (%) remaining, Human Plasma ([2]; 2 h) [%] | Prodrug (%) remaining, Human Plasma ([2]; 4 h) [%] |
| --- | --- | --- | --- | --- | --- | --- | --- | --- | --- | --- | --- | --- |
| COc1ccc([C@@]23CCC(OC(=O)CCC(C)C)=C[C@@H]2N(C)CC3)cc1OC [Compound 399, (3aS,7aS)-3a-(3,4-dimethoxyphenyl)-1-methyl-2,3,3a,4,5,7a-hexahydro-1H-indol-6-yl4-methylpentanoate] | 100.0 | 0.0 | 0.0 | 0.0 | 0.0 | 0.0 | 100.0 | 5.6 | 1.1 | 0.5 | 0.3 | 0.2 |
| CCCCCC(C)C(=O)OC1=C[C@@H]2N(C)CC[C@]2(c2ccc(OC)c(OC)c2)CC1 (stereo partly drawn) [Compound 400, (3aS,7aS)-3a-(3,4-dimethoxyphenyl)-1-methyl-2,3,3a,4,5,7a-hexahydro-1H-indol-6-yl2-methylheptanoate] | 100.0 | 12.6 | 0.6 | 0.1 | 0.1 | 0.0 | 100.0 | 34.7 | 11.6 | 5.2 | 2.3 | 1.9 |
| CCCCC(CC)C(=O)OC1=C[C@@H]2N(C)CC[C@]2(c2ccc(OC)c(OC)c2)CC1 (stereo partly drawn) [Compound 401, (3aS,7aS)-3a-(3,4-dimethoxyphenyl)-1-methyl-2,3,3a,4,5,7a-hexahydro-1H-indol-6-yl2-ethylhexanoate] | 100.0 | 84.5 | 55.8 | 33.8 | 16.3 | 3.3 | 100.0 | 95.9 | >99 | 96.6 | 94.4 | 93.4 |
| CCCC(C)C(=O)OC1=C[C@@H]2N(C)CC[C@]2(c2ccc(OC)c(OC)c2)CC1 (stereo partly drawn) [Compound 402, (3aS,7aS)-3a-(3,4-dimethoxyphenyl)-1-methyl-2,3,3a,4,5,7a-hexahydro-1H-indol-6-yl2-methylpentanoate] | 100.0 | 3.5 | 0.1 | 0.0 | 0.0 | 0.0 | 100.0 | 11.3 | 2.9 | 2.1 | 1.6 | 1.1 |
| COCCCCC(=O)OC1=C[C@@H]2N(C)CC[C@]2(c2ccc(OC)c(OC)c2)CC1 [Compound 404, (3aS,7aS)-3a-(3,4-dimethoxyphenyl)-1-methyl-2,3,3a,4,5,7a-hexahydro-1H-indol-6-yl5-methoxypentanoate] | 100.0 | 0.3 | 0.3 | 0.3 | 0.3 | 0.2 | 100.0 | 22.9 | 11.5 | 7.6 | 3.8 | 1.6 |
| COCCOCCC(=O)OC1=C[C@@H]2N(C)CC[C@]2(c2ccc(OC)c(OC)c2)CC1 [Compound 405, (3aS,7aS)-3a-(3,4-dimethoxyphenyl)-1-methyl-2,3,3a,4,5,7a-hexahydro-1H-indol-6-yl3-(2-methoxyethoxy)propanoate] | 100.0 | 0.1 | 0.0 | 0.1 | 0.0 | 0.0 | 100.0 | >99 | 95.0 | 87.0 | 65.7 | 46.7 |
| CCC(C)C(=O)OC1=C[C@@H]2N(C)CC[C@]2(c2ccc(OC)c(OC)c2)CC1 (stereo partly drawn) [Compound 425, (3aS,7aS)-3a-(3,4-dimethoxyphenyl)-1-methyl-2,3,3a,4,5,7a-hexahydro-1H-indol-6-yl2-methylbutanoate] | 100.0 | 4.4 | 0.1 | 0.0 | 0.0 | 0.0 | 100.0 | 6.5 | 4.8 | 4.0 | 3.0 | 1.9 |
| CCC(CC)C(=O)OC1=C[C@@H]2N(C)CC[C@]2(c2ccc(OC)c(OC)c2)CC1 [Compound 426, (3aS,7aS)-3a-(3,4-dimethoxyphenyl)-1-methyl-2,3,3a,4,5,7a-hexahydro-1H-indol-6-yl2-ethylbutanoate] | 100.0 | 70.2 | 33.2 | 9.5 | 0.9 | 0.1 | 100.0 | 87.1 | 80.3 | 79.2 | 73.6 | 66.4 |
| CCCC(CCC)C(=O)OC1=C[C@@H]2N(C)CC[C@]2(c2ccc(OC)c(OC)c2)CC1 [Compound 427, (3aS,7aS)-3a-(3,4-dimethoxyphenyl)-1-methyl-2,3,3a,4,5,7a-hexahydro-1H-indol-6-yl2-propylpentanoate] | 100.0 | 93.6 | 73.4 | 43.9 | 16.0 | 2.3 | 100.0 | >99 | 96.6 | 96.9 | 95.5 | 91.2 |
| CCC(C)(C)C(=O)OC1=C[C@@H]2N(C)CC[C@]2(c2ccc(OC)c(OC)c2)CC1 [Compound 428, (3aS,7aS)-3a-(3,4-dimethoxyphenyl)-1-methyl-2,3,3a,4,5,7a-hexahydro-1H-indol-6-yl2,2-dimethylbutanoate] | 100.0 | 90.3 | 69.9 | 41.7 | 18.1 | 3.9 | 100.0 | 82.9 | 74.5 | 69.1 | 56.8 | 46.0 |
| CCCC(C)(C)C(=O)OC1=C[C@@H]2N(C)CC[C@]2(c2ccc(OC)c(OC)c2)CC1 [Compound 429, (3aS,7aS)-3a-(3,4-dimethoxyphenyl)-1-methyl-2,3,3a,4,5,7a-hexahydro-1H-indol-6-yl2,2-dimethylpentanoate] | 100.0 | 90.4 | 83.9 | 71.9 | 50.8 | 26.2 | 100.0 | >99 | 96.3 | 95.3 | 91.8 | 84.6 |

Source: patent US20250051277A1, “DELIVERY OF THERAPEUTIC ALKALOID COMPOUNDS” (Sensorium Therapeutics, Inc., priority 2021, published 2025)
